From paper PMC11882969 (Nature Communications, 2025)
pEC50, pKi: −log10 of the molar value. In brackets after ≈: the same amount, converted by molar mass. Several values for one entry are separate records, joined by “and”; a condition that tells them apart may be missing. Equal values may be shown once.

Legend:
[1] = molecular target: panel of 320 non-olfactory GPCRs (Homo sapiens, UniProt Q9H3N8); format: cell-based
[2] = molecular target: panel of 320 non-olfactory GPCRs (Homo sapiens, UniProt O00398); format: cell-based
[3] = molecular target: panel of 320 non-olfactory GPCRs (Homo sapiens, UniProt O14626); format: cell-based
[4] = molecular target: panel of 320 non-olfactory GPCRs (Homo sapiens, UniProt P34998); format: cell-based
[5] = molecular target: panel of 320 non-olfactory GPCRs (Homo sapiens, UniProt Q9H244); format: cell-based
mice [6] = experiment: Body temperature by telemetric probe; format: in vivo, mouse; conditions: 0.2 mg/kg; for Body temperature (pre-injection = 100): individual animals, sheet Figure7a
Description: Body temperature (BT) was measured using a telemetric probe device (HD-X10; Data Science International). Briefly, under anesthesia, the probe device was placed in the mouse abdomen and a subcutaneous tunnel was created from the neck to the abdominal skin, through which a catheter (connected to the probe) was pulled and then inserted into the left carotid artery. Three weeks later, the implanted mice were singly housed in a cage that was placed on top of the DSI receiver (for probe signal detection). We monitored BT continuously over 2 h, in the following manner: 30 min (for baseline), 30 min after injection of the vehicle and then for 1 h after injection of the compound. Data were acquired using the Ponemah Telemetry acquisition software (DSI) and percent changes were presented relative to each mouse’s baseline.

mice [7] = experiment: Formalin test; format: in vivo, mouse; conditions: for formalin test response per time bin (Figure5c), individual animals: 0.2 mg/kg
Description: Thirty min after an i.p. injection of the compounds, mice received an intraplantar injection of a 20μL solution containing 2% formalin (Acros Organics) and we recorded the time mice spent licking/biting/guarding (nocifensive behaviors) the injected hindpaw over the next 60 min.

hCB1 = hCB1 (Homo sapiens, UniProt P21554); experiment: Radioligand competition binding at hCB1; design: host or cells: HEK293SL cells, transient PEI transfection; conditions: for radioligand binding, competition curve point (normalized): log[drug]
physchem = conditions: phosphate-buffered saline, 25 °C, pH 7.4, aqueous buffer, kinetic from dmso stock
hCB2 = hCB2 (Homo sapiens, UniProt P34972); experiment: Cerep HTRF cAMP inhibition assay, hCB2 CHO-K1; format: cell-based; design: host or cells: HEK293SL cells, transient PEI transfection; conditions: for functional response, concentration-response point (FigS7d): replicate columns;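 as to all read-outs here: compounds incubated 30 min at 37 °C with hCB2 CHO-K1 cells, cAMP detected by HTRF, HBSS as basal and reference agonist as stimulated control, run in triplicate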
[8] = molecular target: panel of 320 non-olfactory GPCRs (Homo sapiens, UniProt P49286); format: cell-based
[9] = molecular target: panel of 320 non-olfactory GPCRs (Homo sapiens, UniProt P49146); format: cell-based
[10] = molecular target: panel of 320 non-olfactory GPCRs (Homo sapiens, UniProt P30939); format: cell-based
[11] = molecular target: panel of 320 non-olfactory GPCRs (Homo sapiens, UniProt P47211); format: cell-based
[12] = molecular target: panel of 320 non-olfactory GPCRs (Homo sapiens, UniProt Q14831); format: cell-based
[13] = molecular target: panel of 320 non-olfactory GPCRs (Homo sapiens, UniProt P08588); format: cell-based
[14] = molecular target: panel of 320 non-olfactory GPCRs (Homo sapiens, UniProt Q9HBX9); format: cell-based
[15] = molecular target: panel of 320 non-olfactory GPCRs (Homo sapiens, UniProt Q969V1); format: cell-based
[16] = molecular target: panel of 320 non-olfactory GPCRs (Homo sapiens, UniProt Q9BXC0); format: cell-based
[17] = molecular target: panel of 320 non-olfactory GPCRs (Homo sapiens, UniProt Q9H1C0); format: cell-based
[18] = molecular target: panel of 320 non-olfactory GPCRs (Homo sapiens, UniProt Q02643); format: cell-based
[19] = molecular target: panel of 320 non-olfactory GPCRs (Homo sapiens, UniProt P41145); format: cell-based
[20] = molecular target: panel of 320 non-olfactory GPCRs (Homo sapiens, UniProt Q5NUL3); format: cell-based
[21] = molecular target: panel of 320 non-olfactory GPCRs (Homo sapiens, UniProt P47872); format: cell-based
[22] = molecular target: panel of 320 non-olfactory GPCRs (Homo sapiens, UniProt Q15722); format: cell-based
Sequence of panel of 320 non-olfactory GPCRs (Homo sapiens, UniProt Q15722) (Q15722 whole entry): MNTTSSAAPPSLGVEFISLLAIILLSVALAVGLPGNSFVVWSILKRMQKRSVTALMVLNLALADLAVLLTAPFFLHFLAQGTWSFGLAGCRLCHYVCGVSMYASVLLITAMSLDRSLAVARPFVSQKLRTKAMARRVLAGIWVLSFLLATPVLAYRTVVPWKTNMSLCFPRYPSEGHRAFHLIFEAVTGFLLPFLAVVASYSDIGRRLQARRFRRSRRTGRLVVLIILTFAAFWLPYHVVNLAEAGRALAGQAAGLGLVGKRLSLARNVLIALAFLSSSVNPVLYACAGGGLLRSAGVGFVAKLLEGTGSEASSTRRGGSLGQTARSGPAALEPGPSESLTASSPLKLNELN

Sequence of panel of 320 non-olfactory GPCRs (Homo sapiens, UniProt P30939) (P30939 whole entry): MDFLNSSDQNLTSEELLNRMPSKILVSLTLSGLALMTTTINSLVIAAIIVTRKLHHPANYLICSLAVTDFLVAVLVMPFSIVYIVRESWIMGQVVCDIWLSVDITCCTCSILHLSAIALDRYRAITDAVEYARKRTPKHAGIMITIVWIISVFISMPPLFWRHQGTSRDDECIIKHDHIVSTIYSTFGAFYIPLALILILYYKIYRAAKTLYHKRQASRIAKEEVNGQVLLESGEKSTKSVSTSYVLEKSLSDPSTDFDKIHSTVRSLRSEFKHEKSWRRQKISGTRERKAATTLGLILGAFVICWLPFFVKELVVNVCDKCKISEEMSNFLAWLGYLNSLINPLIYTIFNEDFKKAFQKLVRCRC
Sequence of hCB2 (P34972 whole entry): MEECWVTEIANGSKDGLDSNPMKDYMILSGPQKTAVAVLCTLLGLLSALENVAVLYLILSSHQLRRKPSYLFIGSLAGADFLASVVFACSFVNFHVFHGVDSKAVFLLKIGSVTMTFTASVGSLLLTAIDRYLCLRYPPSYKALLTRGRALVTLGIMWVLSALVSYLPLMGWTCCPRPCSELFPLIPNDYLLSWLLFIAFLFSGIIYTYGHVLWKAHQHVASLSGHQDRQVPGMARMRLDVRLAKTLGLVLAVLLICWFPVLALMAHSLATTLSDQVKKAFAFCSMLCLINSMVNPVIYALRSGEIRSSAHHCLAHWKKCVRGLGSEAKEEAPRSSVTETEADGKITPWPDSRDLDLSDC
Sequence of panel of 320 non-olfactory GPCRs (Homo sapiens, UniProt Q02643) (Q02643 23-423): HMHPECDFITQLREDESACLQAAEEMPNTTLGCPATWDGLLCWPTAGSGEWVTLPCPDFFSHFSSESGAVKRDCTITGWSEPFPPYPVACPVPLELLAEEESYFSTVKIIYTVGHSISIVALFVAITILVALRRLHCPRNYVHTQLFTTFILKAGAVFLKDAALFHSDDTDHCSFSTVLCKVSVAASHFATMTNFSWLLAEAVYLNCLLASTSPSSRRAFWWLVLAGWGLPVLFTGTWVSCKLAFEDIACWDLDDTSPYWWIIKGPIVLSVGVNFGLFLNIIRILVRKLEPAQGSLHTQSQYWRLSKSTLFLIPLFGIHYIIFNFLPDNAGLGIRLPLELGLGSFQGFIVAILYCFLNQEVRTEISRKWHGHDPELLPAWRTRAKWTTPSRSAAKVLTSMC
Sequence of panel of 320 non-olfactory GPCRs (Homo sapiens, UniProt P47211) (P47211 whole entry): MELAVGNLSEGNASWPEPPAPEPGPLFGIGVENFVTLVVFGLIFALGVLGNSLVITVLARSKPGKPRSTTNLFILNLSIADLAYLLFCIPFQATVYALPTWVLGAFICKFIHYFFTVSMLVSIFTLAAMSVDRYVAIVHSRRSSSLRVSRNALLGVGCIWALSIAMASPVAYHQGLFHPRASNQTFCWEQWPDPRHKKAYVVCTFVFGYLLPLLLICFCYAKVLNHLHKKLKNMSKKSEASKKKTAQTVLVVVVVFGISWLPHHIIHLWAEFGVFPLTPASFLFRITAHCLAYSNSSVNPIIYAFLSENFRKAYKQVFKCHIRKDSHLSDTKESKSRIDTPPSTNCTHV
Sequence of panel of 320 non-olfactory GPCRs (Homo sapiens, UniProt Q969V1) (Q969V1 whole entry): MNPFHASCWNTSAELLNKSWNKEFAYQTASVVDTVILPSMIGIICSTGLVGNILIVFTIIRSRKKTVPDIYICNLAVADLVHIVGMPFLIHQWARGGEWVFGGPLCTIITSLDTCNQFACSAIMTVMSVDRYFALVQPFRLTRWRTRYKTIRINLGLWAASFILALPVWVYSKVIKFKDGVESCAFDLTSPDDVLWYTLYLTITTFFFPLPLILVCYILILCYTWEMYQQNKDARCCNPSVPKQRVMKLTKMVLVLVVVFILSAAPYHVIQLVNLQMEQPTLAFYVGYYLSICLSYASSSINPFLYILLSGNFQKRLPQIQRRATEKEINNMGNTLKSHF
Sequence of hCB1 (P21554 whole entry): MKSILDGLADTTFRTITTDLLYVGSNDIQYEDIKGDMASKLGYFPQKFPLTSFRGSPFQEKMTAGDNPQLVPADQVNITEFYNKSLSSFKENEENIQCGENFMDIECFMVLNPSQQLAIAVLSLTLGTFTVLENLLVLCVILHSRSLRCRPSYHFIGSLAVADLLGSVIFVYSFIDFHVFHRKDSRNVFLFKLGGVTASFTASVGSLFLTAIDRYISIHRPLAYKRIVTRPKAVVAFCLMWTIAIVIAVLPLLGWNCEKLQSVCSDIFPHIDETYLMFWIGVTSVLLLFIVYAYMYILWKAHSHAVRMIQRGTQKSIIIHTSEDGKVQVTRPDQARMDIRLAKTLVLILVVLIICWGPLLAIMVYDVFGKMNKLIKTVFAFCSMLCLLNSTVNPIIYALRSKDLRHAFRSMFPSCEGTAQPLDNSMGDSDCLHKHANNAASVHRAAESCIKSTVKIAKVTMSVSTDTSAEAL
Sequence of panel of 320 non-olfactory GPCRs (Homo sapiens, UniProt Q9H1C0) (Q9H1C0 whole entry): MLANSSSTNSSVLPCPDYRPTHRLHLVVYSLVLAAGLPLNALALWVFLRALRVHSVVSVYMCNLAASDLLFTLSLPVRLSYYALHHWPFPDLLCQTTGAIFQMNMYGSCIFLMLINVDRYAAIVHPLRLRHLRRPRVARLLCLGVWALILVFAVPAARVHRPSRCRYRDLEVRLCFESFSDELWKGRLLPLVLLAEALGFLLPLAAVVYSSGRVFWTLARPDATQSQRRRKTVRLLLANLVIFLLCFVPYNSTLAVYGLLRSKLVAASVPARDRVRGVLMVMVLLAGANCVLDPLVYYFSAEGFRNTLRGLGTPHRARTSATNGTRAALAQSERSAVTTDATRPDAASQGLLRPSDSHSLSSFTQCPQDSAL
Sequence of panel of 320 non-olfactory GPCRs (Homo sapiens, UniProt Q9BXC0) (Q9BXC0 whole entry): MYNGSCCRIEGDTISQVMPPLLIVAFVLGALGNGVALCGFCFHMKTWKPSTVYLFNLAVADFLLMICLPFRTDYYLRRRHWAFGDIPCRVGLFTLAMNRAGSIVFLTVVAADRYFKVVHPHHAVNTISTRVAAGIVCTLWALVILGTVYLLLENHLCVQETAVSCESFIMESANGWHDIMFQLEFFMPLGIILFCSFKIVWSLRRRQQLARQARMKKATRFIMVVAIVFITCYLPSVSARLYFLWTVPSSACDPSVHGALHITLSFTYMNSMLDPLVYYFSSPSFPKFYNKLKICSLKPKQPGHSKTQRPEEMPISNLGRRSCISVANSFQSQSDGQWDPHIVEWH
Sequence of panel of 320 non-olfactory GPCRs (Homo sapiens, UniProt O00398) (O00398 whole entry): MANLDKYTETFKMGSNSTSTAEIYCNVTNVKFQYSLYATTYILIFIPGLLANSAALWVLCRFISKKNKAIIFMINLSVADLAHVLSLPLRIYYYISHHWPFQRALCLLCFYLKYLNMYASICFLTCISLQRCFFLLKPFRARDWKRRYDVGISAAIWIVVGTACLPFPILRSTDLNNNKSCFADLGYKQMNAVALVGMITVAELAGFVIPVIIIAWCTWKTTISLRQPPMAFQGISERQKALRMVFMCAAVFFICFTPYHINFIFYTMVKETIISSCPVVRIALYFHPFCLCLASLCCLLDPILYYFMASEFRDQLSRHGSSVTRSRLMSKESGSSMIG
Sequence of panel of 320 non-olfactory GPCRs (Homo sapiens, UniProt P08588) (P08588 whole entry): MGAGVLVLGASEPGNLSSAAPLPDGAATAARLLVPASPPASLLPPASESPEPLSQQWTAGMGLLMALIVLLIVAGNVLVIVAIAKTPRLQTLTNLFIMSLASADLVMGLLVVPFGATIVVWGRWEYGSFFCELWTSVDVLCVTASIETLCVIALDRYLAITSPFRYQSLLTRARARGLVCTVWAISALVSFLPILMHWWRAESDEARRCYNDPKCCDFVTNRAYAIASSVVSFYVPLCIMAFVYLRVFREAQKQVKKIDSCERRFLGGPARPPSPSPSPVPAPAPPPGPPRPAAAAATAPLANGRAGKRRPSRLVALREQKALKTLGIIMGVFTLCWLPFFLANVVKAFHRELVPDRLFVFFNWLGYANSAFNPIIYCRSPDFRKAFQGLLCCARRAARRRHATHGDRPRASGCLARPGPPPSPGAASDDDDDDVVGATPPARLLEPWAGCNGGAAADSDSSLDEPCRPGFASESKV
Sequence of panel of 320 non-olfactory GPCRs (Homo sapiens, UniProt Q9H3N8) (Q9H3N8 whole entry): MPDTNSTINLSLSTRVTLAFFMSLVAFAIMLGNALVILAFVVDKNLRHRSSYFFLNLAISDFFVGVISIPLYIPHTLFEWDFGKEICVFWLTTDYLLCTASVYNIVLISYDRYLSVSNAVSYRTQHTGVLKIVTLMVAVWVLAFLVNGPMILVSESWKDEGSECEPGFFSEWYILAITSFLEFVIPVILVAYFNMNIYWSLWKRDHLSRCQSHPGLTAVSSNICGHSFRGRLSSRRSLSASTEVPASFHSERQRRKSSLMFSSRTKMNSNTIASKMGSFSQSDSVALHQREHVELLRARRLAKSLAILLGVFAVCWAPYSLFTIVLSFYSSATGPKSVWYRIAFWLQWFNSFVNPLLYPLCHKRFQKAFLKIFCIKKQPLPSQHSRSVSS
Sequence of panel of 320 non-olfactory GPCRs (Homo sapiens, UniProt O14626) (O14626 whole entry): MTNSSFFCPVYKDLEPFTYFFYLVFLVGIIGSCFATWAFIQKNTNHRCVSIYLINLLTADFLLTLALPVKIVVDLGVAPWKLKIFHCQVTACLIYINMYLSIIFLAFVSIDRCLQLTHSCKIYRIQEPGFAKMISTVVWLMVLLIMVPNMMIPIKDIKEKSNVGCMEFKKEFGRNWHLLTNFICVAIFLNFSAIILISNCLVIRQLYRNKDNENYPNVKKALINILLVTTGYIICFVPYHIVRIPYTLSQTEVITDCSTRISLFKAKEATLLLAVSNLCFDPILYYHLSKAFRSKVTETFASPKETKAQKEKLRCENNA

COC(=O)[C@@](C)(NC(=O)c1cc(C)n(-c2cccc(C(F)(F)F)c2)n1)c1cccs1 [‘1350]
Fold of Basal RLU [1]: 1.6 fold and 1.4 fold and 2.4 fold and 1.5 fold
Fold of Basal RLU [2]: 1.1 and 1 and 1.2
Fold of Basal RLU [3]: 1.4 and 1 and 1.5 and 0.8
Fold of Basal RLU [4]: 0.7 and 0.9
Fold of Basal RLU [5]: 0.7 and 0.6
hypothermia (mice [6]; vs baseline and vehicle): increased hypothermia compared to CP-55,940
Body temperature (pre-injection = 100) (mice [6]; time 10): 97.5 and 99.4 (2×)
Body temperature (pre-injection = 100) (mice [6]; time 20): 90.5 and 93.9 and 97
Body temperature (pre-injection = 100) (mice [6]; time 30): 83.8 and 88.4 and 92.4
Body temperature (pre-injection = 100) (mice [6]; time 40): 79.1 and 83.4 and 87.4
Body temperature (pre-injection = 100) (mice [6]; time 50): 78.7 and 80.2 and 84.2
Body temperature (pre-injection = 100) (mice [6]; time 60): 79.9 and 78.4 and 83.6
Body temperature (pre-injection = 100) (mice [6]; time 70): 81.4 and 78.1 and 83.5
Body temperature (pre-injection = 100) (mice [6]; time 80): 82.4 and 78.5 and 83.9
Body temperature (pre-injection = 100) (mice [6]; time 90): 82.1 and 79.5 and 83.5
effect on formalin nocifensive behaviors (mice [7]; 0.2 mg/kg i.p., 60 min): profoundly decreased the duration of both phase 1 and phase 2 nocifensive behaviors
formalin test response per time bin (Figure5c), individual animals (mice [7]; Time 0 min): 0
formalin test response per time bin (Figure5c), individual animals (mice [7]; Time 5 min): 47.9 and 64.7 and 87.7 and 92.8 and 88.1
formalin test response per time bin (Figure5c), individual animals (mice [7]; Time 10 min): 0 (4×) and 6.3
formalin test response per time bin (Figure5c), individual animals (mice [7]; Time 15 min): 0 (3×) and 1.5 and 2.3
formalin test response per time bin (Figure5c), individual animals (mice [7]; Time 20 min): 2.9 and 0 (3×) and 3.6
formalin test response per time bin (Figure5c), individual animals (mice [7]; Time 25 min): 1.9 and 13.6 and 0 (2×) and 21.9
formalin test response per time bin (Figure5c), individual animals (mice [7]; Time 30 min): 0 (2×) and 85 and 92.7 and 5.3
formalin test response per time bin (Figure5c), individual animals (mice [7]; Time 35 min): 1.8 and 59 and 0 (2×) and 91.5
formalin test response per time bin (Figure5c), individual animals (mice [7]; Time 40 min): 2.3 and 173.3 and 5.2 and 106.7 and 40.7
formalin test response per time bin (Figure5c), individual animals (mice [7]; Time 45 min): 3.9 and 181.8 and 5.2 and 10 and 11.7
formalin test response per time bin (Figure5c), individual animals (mice [7]; Time 50 min): 8.3 and 48.5 and 11.2 and 3.8 and 50.2
formalin test response per time bin (Figure5c), individual animals (mice [7]; Time 55 min): 40.3 and 35.4 and 0 (3×)
formalin test response per time bin (Figure5c), individual animals (mice [7]; Time 60 min): 2.4 and 30.9 and 0 (3×)
pKi (hCB1): 9.49
radioligand binding, competition curve point (normalized) (hCB1; M = -6.64345, replicate columns): 11.7845 and 1.336
radioligand binding, competition curve point (normalized) (hCB1; M = -7.35666, replicate columns): 11.2233 and 0.827
radioligand binding, competition curve point (normalized) (hCB1; M = -8.06987, replicate columns): 12.4018 and 13.4224
radioligand binding, competition curve point (normalized) (hCB1; M = -8.78308, replicate columns): 40.0112 and 26.5903
radioligand binding, competition curve point (normalized) (hCB1; M = -9.49629, replicate columns): 69.0236 and 54.2939
radioligand binding, competition curve point (normalized) (hCB1; M = -10.2095, replicate columns): 97.7273 and 72.2328
radioligand binding, competition curve point (normalized) (hCB1; M = -11.9245, replicate columns): 99.9439 and 88.4224
radioligand binding, competition curve point (normalized) (hCB1; M = -13.6383, replicate columns): 102.525 and 91.0941
solubility at 2 h (physchem): 23 µM (≈ 10.1 µg/mL)

COC(=O)C(C)(NC(=O)c1cc(C)n(-c2cccc(C(F)(F)F)c2)n1)c1cccs1 (stereo not shown) [‘4042]
Emax (hCB2; CHO-K1, hCB2): 72%
functional response, concentration-response point (FigS7d) (hCB2; Concentration [M] 1e-12): 9.2 and 15.9 and 20.5
functional response, concentration-response point (FigS7d) (hCB2; Concentration [M] 1e-11): 54.5 and 33.7 and 39.7
functional response, concentration-response point (FigS7d) (hCB2; Concentration [M] 1e-10): 72.4 and 68.7 and 74.5
functional response, concentration-response point (FigS7d) (hCB2; Concentration [M] 1e-9): 87.6 and 76.3 and 78.1
functional response, concentration-response point (FigS7d) (hCB2; Concentration [M] 1e-8): 74.4 and 84.9 and 81.3
functional response, concentration-response point (FigS7d) (hCB2; Concentration [M] 1e-7): 79.5 and 79.9 and 79.2
functional response, concentration-response point (FigS7d) (hCB2; Concentration [M] 1e-6): 80.1 and 76.3 and 83.8
Cerep cAMP pEC50 (hCB2; hCB2): 10.95 [10.7 – 11.6]
pEC50 (hCB2; hCB2): 10.96

Cc1cc(C(=O)NC(C)(c2ccco2)c2ccco2)nn1-c1cccc(C(F)(F)F)c1 [‘4936]
Fold of Basal RLU [8]: 1.4 fold and 2 fold and 2.5 fold and 2.8 fold
Fold of Basal RLU [9]: 1.1 fold and 0.9 fold and 0.7 fold
Fold of Basal RLU [10]: 0.8 fold and 1.5 fold and 0.9 fold
Fold of Basal RLU [11]: 1.3 and 1 and 0.7 and 1.4
Fold of Basal RLU [12]: 0.5 and 1 and 0.9 and 0.6
Fold of Basal RLU [13]: 0.7 and 0.8 and 0.6
Fold of Basal RLU [14]: 0.9 and 1.1 and 1.7 and 1.3
Fold of Basal RLU [15]: 1.7 and 1.4 and 1 and 1.6
Fold of Basal RLU [16]: 0.4 and 0.7 and 0.6
Fold of Basal RLU [17]: 0.7 and 0.4 and 0.6
Fold of Basal RLU [18]: 0.7 and 0.6 and 1
Fold of Basal RLU [19]: 1.5 fold and 0.8 fold and 1 fold
Fold of Basal RLU [20]: 0.3 and 0.2
Fold of Basal RLU [21]: 1.6 and 1.3
Fold of Basal RLU [22]: 0.6 and 1 and 0.9 and 0.8
pKi (hCB1): 8.40
radioligand binding, competition curve point (normalized) (hCB1; M = -5.643, replicate columns): -14.5136 and 0.4673
radioligand binding, competition curve point (normalized) (hCB1; M = -6.357, replicate columns): -3.19 and 6.075
radioligand binding, competition curve point (normalized) (hCB1; M = -7.07, replicate columns): 20.4147 and 9.813
radioligand binding, competition curve point (normalized) (hCB1; M = -7.783, replicate columns): 36.2041 and 27.8816
radioligand binding, competition curve point (normalized) (hCB1; M = -8.496, replicate columns): 40.1914 and 64.2523
radioligand binding, competition curve point (normalized) (hCB1; M = -9.21, replicate columns): 71.0526 and 82.243
radioligand binding, competition curve point (normalized) (hCB1; M = -9.923, replicate columns): 77.9904 and 73.053
radioligand binding, competition curve point (normalized) (hCB1; M = -10.636, replicate columns): 83.8915 and 104.439
